ChEMBL document CHEMBL1201862, “PubChem BioAssay data set” (2004)
Where a name gives a salt, the structure may show the parent alone. The source made the active and inactive calls.

Experiments:
[1] = M. tuberculosis growth inhibition, HTS (AID 449762); format: functional
[2] = NIH-3T3 fibroblast cytotoxicity, dose response, cytotoxicity control, cell-based, fluorescence, Alamar Blue, secondary assay (AID 2327); format: functional;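 further: NIH-3T3 mouse fibroblasts cultured with fluconazole at 8 µg/mL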
[3] = luciferase reporter signal suppression in cells – H4 neuroglioma cells, luminescence, dose response (AID 1990); format: functional, cell-based
[4] = Luminescence Cell-Based Dose Response HTS to Identify Inhibitors of 5'UTR Stem-Loop Driven Prion Protein mRNA Translation in H4 Neuroglioblastoma Cells. [Related pubchem assays: 1827 (Project Summary), 1813 (Primary HTS)]; format: functional
[5] = alpha-synuclein stem-loop luciferase translation blockers – H4 neuroglioma cells, luminescence, confirmation (AID 1988); format: functional, cell-based
[6] = fluconazole-exposed Candida albicans growth modulators – fluorescence, retest, confirmation (AID 2467); format: functional, cell-based
[7] = Trypanosoma cruzi growth suppression in host cells – NIH3T3 host cells, beta-gal luminescence, confirmation (AID 2044); format: functional, cell-based;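 further: intracellular parasites grown in NIH/3T3 mouse fibroblasts as host cells; luminescent beta-galactosidase reporter signal from transgenic T. cruzi replicating inside host cells; inhibitors lower the luminescence signal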
[8] = NIH3T3 cell viability loss – ATP luminescence, mouse fibroblasts, counter-screen, dose response (AID 2010); format: functional, cell-based;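 further: cells exposed to compound for about 90 hours before reading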
[9] = HIV-1 Vif–A3G interaction blockers – biochemical, TR-FRET, GST-Vif 1-94, biotin-A3G peptide, dose response retest, primary screen (AID 1117319); format: functional;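 further: TR-FRET signal of purified GST-Vif binding a biotinylated A3G peptide; inhibitors lower the FRET signal by blocking Vif and A3G binding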
[10] = biological target: T1, Mannose-6-phosphate isomerase (Homo sapiens, UniProt P34949); test: MPI enzyme activity inhibition – biochemical, fluorescence intensity, coupled assay, primary screen (AID 1209)
T1 sequence (P34949 whole entry): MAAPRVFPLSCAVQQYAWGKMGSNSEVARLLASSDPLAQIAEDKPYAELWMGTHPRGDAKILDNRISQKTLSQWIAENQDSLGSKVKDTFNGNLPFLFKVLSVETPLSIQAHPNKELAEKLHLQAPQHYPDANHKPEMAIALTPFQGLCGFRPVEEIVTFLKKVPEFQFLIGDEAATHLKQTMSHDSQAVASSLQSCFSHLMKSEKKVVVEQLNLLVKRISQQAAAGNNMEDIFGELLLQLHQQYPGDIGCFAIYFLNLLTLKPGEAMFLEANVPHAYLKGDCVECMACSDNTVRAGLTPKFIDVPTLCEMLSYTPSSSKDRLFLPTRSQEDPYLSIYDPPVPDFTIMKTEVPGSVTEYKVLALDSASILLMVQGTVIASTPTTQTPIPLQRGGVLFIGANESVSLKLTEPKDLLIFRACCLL

Beta-galactosidase = Beta-galactosidase (Escherichia coli, UniProt Q8VNN2); test: PubChem AID 485352; format: functional
Chain of Beta-galactosidase (Q8VNN2 whole entry): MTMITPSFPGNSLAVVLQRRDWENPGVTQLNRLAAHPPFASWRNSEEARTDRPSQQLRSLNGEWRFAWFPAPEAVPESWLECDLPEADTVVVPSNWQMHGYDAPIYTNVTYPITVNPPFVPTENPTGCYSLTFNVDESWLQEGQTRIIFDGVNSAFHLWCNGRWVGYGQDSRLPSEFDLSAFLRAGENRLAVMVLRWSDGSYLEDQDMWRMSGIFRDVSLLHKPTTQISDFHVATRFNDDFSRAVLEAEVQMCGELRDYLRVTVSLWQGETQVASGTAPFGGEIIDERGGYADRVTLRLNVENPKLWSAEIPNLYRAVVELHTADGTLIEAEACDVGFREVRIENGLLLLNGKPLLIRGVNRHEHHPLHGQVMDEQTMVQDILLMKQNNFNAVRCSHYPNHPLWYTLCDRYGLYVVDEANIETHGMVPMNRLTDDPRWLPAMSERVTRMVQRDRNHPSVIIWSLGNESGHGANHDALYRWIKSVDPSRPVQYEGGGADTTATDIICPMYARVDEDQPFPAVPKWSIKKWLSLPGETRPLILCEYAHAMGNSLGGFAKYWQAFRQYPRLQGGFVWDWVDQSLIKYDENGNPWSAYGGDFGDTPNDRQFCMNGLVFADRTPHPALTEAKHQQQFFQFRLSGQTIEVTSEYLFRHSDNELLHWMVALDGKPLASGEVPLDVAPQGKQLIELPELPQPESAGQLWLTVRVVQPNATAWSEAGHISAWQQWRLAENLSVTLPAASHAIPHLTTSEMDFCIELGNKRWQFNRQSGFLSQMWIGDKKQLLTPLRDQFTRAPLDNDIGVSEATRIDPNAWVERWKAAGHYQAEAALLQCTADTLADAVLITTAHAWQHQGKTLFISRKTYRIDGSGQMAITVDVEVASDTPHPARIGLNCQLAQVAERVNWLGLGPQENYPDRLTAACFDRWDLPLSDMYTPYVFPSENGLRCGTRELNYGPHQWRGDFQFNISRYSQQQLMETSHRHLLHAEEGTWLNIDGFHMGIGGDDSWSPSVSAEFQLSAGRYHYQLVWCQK

[11] = HPDE-C7 pancreatic duct cell viability loss – fluorescence, HTS (AID 430); format: functional, cell-based; settings: Homo sapiens
[12] = viability loss of HPDE-C7K cells – cell-based, fluorescence, HTS, primary screen (AID 431); format: functional; settings: Homo sapiens
[13] = biological target: T2, Type-1 angiotensin II receptor (Homo sapiens, UniProt P30556); test: antagonism of angiotensin II type 1 receptor – cell-based, uHTS hits, selectivity assay for APJ receptor antagonist project, dose response (AID 463214); format: functional;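 further: antagonist potency against angiotensin II stimulated AT1 response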
T2 sequence (P30556 whole entry): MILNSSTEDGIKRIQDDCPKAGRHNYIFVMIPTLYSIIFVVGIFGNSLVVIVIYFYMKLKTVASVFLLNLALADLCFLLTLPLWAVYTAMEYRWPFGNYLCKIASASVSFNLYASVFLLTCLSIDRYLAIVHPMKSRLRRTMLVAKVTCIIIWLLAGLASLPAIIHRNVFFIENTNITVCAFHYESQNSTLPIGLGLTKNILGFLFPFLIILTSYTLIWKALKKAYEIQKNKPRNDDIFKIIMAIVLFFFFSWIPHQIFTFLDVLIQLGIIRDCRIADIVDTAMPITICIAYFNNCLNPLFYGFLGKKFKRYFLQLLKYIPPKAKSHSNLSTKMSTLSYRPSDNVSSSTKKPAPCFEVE

[14] = HEK-293T viability loss after treatment – luminescence, T-cell screen hits, cytotoxicity control for TCR NF-kB inhibitor project, dose response (AID 489026); format: functional, cell-based;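 further: cells exposed to compound about 14 hours before the viability readout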
[15] = Luminescent dose response cell-based high throughput screening assay for inhibitors of the Janus kinase 2 mutant JAK2V617F. [Related pubchem assays: 1446 (Primary screen.), 1521 (Confirmation assay.), 1486 (Counter screen.)]; format: functional
[16] = biological target: T3, Rac GTPase-activating protein 1 (Homo sapiens, UniProt Q9H0H5); test: blockers of MgcRacGAP-driven Rac1 GTP hydrolysis – biochemical, ADP Hunter fluorescence, primary and confirmatory, confirmation (AID 624330); format: functional
T3 sequence (Q9H0H5 whole entry): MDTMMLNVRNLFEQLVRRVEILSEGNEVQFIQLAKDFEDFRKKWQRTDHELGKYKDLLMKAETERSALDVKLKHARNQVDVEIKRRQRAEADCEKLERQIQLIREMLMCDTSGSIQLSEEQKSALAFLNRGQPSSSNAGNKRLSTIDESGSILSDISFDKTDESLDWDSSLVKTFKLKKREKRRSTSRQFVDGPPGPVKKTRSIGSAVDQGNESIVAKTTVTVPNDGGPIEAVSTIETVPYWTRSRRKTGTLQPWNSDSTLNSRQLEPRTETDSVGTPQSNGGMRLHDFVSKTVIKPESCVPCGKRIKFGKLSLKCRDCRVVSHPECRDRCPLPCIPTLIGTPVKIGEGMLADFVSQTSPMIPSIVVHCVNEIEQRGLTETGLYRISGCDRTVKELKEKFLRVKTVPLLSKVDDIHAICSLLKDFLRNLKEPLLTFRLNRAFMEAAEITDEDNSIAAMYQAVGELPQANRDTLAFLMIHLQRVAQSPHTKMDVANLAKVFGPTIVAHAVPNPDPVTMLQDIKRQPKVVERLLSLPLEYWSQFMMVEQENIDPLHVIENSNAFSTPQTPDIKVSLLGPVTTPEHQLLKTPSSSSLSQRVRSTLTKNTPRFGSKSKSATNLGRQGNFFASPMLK

Ephrin type-A receptor 4 = Ephrin type-A receptor 4 (Mus musculus, UniProt Q03137); test: EphA4 ligand-binding antagonists – biochemical, colorimetric, mouse EphA4, primary screen (AID 689); format: functional
Chain of Ephrin type-A receptor 4 (Q03137 whole entry): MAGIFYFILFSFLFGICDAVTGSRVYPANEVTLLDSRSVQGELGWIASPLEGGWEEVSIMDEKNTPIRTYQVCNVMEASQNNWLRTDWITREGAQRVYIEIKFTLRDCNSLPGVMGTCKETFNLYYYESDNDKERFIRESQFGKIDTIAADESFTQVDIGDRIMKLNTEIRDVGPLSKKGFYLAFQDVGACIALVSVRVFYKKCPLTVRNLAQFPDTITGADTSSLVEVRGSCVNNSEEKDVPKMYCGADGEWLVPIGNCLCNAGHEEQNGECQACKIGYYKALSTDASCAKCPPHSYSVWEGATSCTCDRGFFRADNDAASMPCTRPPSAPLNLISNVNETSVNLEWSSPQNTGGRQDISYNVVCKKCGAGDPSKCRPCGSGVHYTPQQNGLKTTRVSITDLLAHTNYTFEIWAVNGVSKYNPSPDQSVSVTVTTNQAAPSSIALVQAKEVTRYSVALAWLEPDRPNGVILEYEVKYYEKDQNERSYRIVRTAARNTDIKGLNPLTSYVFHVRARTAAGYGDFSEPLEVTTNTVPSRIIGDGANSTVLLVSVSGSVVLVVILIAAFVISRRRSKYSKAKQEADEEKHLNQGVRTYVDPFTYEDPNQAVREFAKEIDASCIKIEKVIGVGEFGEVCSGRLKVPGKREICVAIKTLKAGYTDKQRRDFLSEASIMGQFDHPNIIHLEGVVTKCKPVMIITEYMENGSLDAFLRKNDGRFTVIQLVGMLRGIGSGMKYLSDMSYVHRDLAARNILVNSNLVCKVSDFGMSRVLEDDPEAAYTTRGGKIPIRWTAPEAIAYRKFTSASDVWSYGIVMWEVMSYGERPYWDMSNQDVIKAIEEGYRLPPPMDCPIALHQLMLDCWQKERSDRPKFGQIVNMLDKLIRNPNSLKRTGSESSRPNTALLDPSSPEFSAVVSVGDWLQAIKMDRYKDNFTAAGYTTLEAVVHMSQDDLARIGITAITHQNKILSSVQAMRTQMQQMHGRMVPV

Cytochrome P450 2C19 = Cytochrome P450 2C19 (Homo sapiens, UniProt P33261); test: Cytochrome panel assay with activity outcomes. Panel member name: p450-cyp2c19 Compounds with AC50 equal or less than 10 uM are considered active; format: functional; settings: read-out: AC50
Chain of Cytochrome P450 2C19 (P33261 whole entry): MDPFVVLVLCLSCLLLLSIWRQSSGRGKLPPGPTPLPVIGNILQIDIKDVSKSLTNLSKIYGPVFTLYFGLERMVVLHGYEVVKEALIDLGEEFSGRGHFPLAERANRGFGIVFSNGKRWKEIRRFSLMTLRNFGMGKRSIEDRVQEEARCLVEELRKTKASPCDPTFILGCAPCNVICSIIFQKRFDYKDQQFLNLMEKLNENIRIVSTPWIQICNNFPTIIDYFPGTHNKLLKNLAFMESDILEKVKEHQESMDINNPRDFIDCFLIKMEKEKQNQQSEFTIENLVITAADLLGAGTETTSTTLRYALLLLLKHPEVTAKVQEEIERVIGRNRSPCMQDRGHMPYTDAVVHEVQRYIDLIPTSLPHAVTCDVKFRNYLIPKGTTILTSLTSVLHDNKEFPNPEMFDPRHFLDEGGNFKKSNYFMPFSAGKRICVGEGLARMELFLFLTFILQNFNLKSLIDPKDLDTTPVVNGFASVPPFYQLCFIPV

Cytochrome P450 3A4 = Cytochrome P450 3A4 (Homo sapiens, UniProt P08684);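 further: CYP3A4 tested as one member of a cytochrome P450 panel screen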
Chain of Cytochrome P450 3A4 (P08684 whole entry): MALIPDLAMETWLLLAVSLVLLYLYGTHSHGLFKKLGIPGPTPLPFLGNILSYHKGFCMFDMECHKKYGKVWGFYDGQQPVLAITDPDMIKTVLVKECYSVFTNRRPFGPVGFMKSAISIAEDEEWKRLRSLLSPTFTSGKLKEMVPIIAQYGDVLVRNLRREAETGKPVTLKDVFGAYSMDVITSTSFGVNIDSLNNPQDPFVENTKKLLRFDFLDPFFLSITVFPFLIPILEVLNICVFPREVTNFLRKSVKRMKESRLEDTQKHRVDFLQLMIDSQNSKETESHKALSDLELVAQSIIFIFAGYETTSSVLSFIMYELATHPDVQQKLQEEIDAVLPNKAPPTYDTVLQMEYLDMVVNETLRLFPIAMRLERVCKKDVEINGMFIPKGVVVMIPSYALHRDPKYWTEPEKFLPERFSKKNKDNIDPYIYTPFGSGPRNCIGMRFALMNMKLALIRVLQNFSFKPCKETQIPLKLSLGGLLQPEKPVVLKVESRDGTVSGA

Cytochrome P450 2C9 = Cytochrome P450 2C9 (Homo sapiens, UniProt P11712)
Chain of Cytochrome P450 2C9 (P11712 whole entry): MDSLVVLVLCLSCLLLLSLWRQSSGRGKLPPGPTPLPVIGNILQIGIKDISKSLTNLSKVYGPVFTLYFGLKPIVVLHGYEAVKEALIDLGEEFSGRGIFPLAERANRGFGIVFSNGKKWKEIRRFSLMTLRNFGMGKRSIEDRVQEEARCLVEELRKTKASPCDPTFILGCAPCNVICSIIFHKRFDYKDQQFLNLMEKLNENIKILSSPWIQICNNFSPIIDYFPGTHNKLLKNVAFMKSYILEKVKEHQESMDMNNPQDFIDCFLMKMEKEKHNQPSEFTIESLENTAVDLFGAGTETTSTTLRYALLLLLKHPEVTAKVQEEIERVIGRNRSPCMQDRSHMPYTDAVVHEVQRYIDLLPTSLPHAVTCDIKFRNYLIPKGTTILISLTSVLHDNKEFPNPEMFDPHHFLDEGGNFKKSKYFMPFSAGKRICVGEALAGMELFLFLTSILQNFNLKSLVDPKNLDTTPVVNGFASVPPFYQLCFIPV

[17] = biological target: T4, Ubiquitin-conjugating enzyme E2 N (Homo sapiens, UniProt P61088); format: functional;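 further: Dose-response confirmation in a TR-FRET assay detecting UBC13-driven polyubiquitin chain formation, inhibition measured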
T4 sequence (P61088 whole entry): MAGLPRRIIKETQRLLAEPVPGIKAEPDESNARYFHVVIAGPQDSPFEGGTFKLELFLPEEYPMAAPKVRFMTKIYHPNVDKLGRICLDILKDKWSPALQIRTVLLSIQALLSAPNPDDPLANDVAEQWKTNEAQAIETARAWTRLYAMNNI

For `Cn1ccnc1C(O)c1cc(C(C)(C)C)c(O)c(C(C)(C)C)c1` (stereo not drawn), the IC50 [1] was > 100 µM (active).

For `CCOc1ccc(-c2cc(C)[n+](CCN(CC)CC)c(-c3ccc(OCC)cc3)c2)cc1.[O-][Cl+3]([O-])([O-])[O-]`, the EC50 [2] was 98.5 µM (active), the EC50 [3] was 10.2 µM (active) and the EC50 [4] was 14.6 µM (active). For the same compound, the EC50 [5] was 8.8 µM (active), the EC50 [6] was 0.258 µM (active) and the EC50 [7] was < 0.1 µM (active). The EC50 [8] was > 60 µM (not active) and the EC50 (cells) was 0.089 µM (active).

For `CC(=O)c1ccc(S(=O)(=O)Nc2cccc(-c3ccc(N4CCOCC4)nn3)c2)cc1`, the IC50 [9] was > 100 µM (active).

For `CCOC(=O)c1ccc(N2C(=O)CC(SCC(=O)Nc3ccc(S(N)(=O)=O)cc3)C2=O)cc1` (stereo not drawn), the IC50 [10] was 28.1 µM (active).

With `COc1ccc(N2CN=C3SCC(=O)N3C2)cc1` the IC50 [1] was > 100 µM (active).

With `CCOC(=O)/C=C/S(=O)(=O)c1ccc(NC(C)=O)cc1` the EC50 (Beta-galactosidase) was > 40 µM (inactive), the EC50 [11] was 8.93 µM (active) and the EC50 [12] was 10.4 µM (active). The IC50 [13] was 9.22 µM (active) and the IC50 [14] was > 80 µM (inactive).

For `Oc1ccc(Cl)cc1/N=C/c1sc2ccccc2c1Cl`, the IC50 [15] was 1.15 µM (active) and the IC50 [16] was 20.4 µM (active).

For `CCOC(=O)C1=C(c2ccccc2)N=c2s/c(=C\c3cc(OC)c(OC)c(OC)c3)c(=O)n2C1c1cccs1` (stereo not drawn), the EC50 [7] was 1.29 µM (active), the EC50 [8] was > 60 µM (not active) and the IC50 (Ephrin type-A receptor 4) was 1.49 µM (active). For the same compound, the AC50 (Cytochrome P450 2C19) was 0.631 µM (inconclusive), the AC50 (Cytochrome P450 3A4) was 7.08 µM (inconclusive) and the AC50 (Cytochrome P450 2C9) was 1.26 µM (inconclusive).

For `CNCCC(Oc1ccc(C(F)(F)F)cc1)c1ccccc1` (stereo not drawn) [FLUOXETINE HYDROCHLORIDE], the EC50 [11] was > 20 µM (not active), the EC50 [12] was > 20 µM (not active) and the IC50 [17] was > 20 µM (inactive).
